Data from US7045617B2, “Bisbubstrate inhibitors of kinases” (priority 2000, dated 2006).
Like-named read-outs stand apart in the source and are kept apart here. Where a SMILES comes first, the peptide text is derived from it. [ ]: non-standard residue; d: D form. The star is where a group is joined. X1 = Nc1ncnc2c1ncn2[C@@H]1O[C@H](COP(=O)(O)OP(=O)(O)OP(=O)(O)SCC(=O)*)[C@@H](O)[C@H]1O; Phe(4-NH2) = Nc1ccc(C[C@H](N)C(=O)O)cc1; Dap = NC[C@H](N)C(=O)O

Experiments:
[1] = target: activated recombinant IRK (insulin receptor kinase) (Homo sapiens, UniProt P06213); test: Steady-state kinetic analysis of IRK inhibition (kinase assay); type: biochemical; conditions: for binding energy: binding to IRK
Experimental: FIG. 2. […] Assays were carried out using activated recombinant IRK as described previously. 6 a, E/V vs. 1/ATP in the presence of varying. Conditions: fixed IRS727 concentration ([…]), 20 mM MgCl2, 0.5 mM DTT, 6 nM IRK, 0.05% bovine serum albumin, Tris-Acetate pH 7, 10 min reaction time. b, E/V vs. 1/IRS727 in the presence of varying. Conditions same as for a except fixed ATP ([…]), 8 nM IRK and 5 min reaction time.
v=Vm(S)/[Km(1+I/Ki)+S]; v=initial velocity, Vm=maximal velocity, S=substrate concentration, Km=Michaelis constant. […] Conditions: Incubation of […] +/−5 mM 2 for 10 min in reaction buffer (20 mM MgCl2, 0.5 mM DTT, 0.05% BSA, 50 mM Tris-Acetate, pH 7) then dilute 1:50 into reaction buffer containing 1 mM ATP and […] peptide6 IRS939 and measure conversion by HPLC at times shown. To determine koff, data were fit to the equation^17: […]
Assays were carried out using activated recombinant IRK as described previously^6. For E/V vs. 1/ATP plot the conditions were: […] IRS727 concentration, 20 mM MgCl2, 0.5 mM DTT, 6 nM IRK, 0.05% bovine serum albumin, 50 mM Tris-Acetate pH 7, 10 min reaction time. For E/V vs. 1/IRS727 in the conditions were the same except fixed ATP ([…]) was employed, 8 nM IRK and 5 min reaction time.
v=Vm(S)/[Km(1+I/Ki)+S]; v=initial velocity, Vm=maximal velocity, S=substrate concentration, Km=Michaelis constant.

Csk = Csk (Homo sapiens, UniProt P41240); test: Inhibition of protein tyrosine kinase Csk; type: biochemical; conditions: read-out: Km (ATP)
Experimental: The specificity of inhibition was also tested by assaying 2 as an inhibitor of the protein tyrosine kinase Csk18. The peptide binding selectivity for Csk is quite different from IRK, and the IRS727 peptide moiety would be predicted to bind poorly to this enzyme^19. […] Thus the bisubstrate analog approach should allow for kinase selectivity based in part on peptide sequence.

[2] = Stability of compound in aqueous solution; type: physicochemical
Source text: The protected peptide was assembled using solid-phase peptide synthesis using Fmoc chemistry, in which the single tyrosine of IRS727 was replaced with commercially available nitrophenylalanine. The nitro group was reduced with SnCl2 and the aniline function was bromoacetylated via standard coupling conditions. The peptide was cleaved from the resin and deblocked with trifluoroacetic acid, water, and thioanisole and purified by reversed phase HPLC. […] The peptide-ATP conjugate 2 was purified by reversed phase HPLC and characterized by electrospray mass spectrometry and 1H NMR.

[3] = target: T1, recombinant mouse PKA (catalytic subunit) (Mus musculus, UniProt P05132); test: PKA inhibition assay (Calbiochem kit, Dixon plot); type: biochemical; conditions: preliminary assays
T1 construct: purchased Calbiochem
Experimental: Reagents from Calbiochem's Protein Kinase A kit were used to perform the inhibition assays and recombinant mouse PKA (catalytic subunit) was also purchased from Calbiochem (enzyme concentration was established by Bradford analysis). A 0.76 mM stock solution of kemptide-ATPγS conjugate was prepared and used to make serial dilutions into an aqueous MgCl2 solution (53 mM), producing a range of inhibitor concentrations from 144 uM to 1.4 μM with Mg2+ concentration of 47.7 mM. These were further diluted into water to produce a range of inhibitor solutions between 51 μM and 507 nM. An 11.25 μL aliquot from each of these solutions was pre-incubated with 7.5 μL of a 1.75 nM PKA enzyme solution (750 ug/uL bovine serum albumin) for 10 minutes at 30° C. after which 12.5 μL of pre-incubation mix was added to 12.5 μL of reaction mix (30 μM cold ATP, 50 μM biotinylated kemptide substrate, 0.04 uCi/μL γP-32 ATP, 80 mM Tris-HCl, 10 mM MgCl2, pH 7.5) to initiate the enzymatic reaction. […] The columns were placed in scintillation vials and radioactivity was measured using a scintillation counter.

Sequence of activated recombinant IRK (insulin receptor kinase) (P06213 1005-1310 limits assumed): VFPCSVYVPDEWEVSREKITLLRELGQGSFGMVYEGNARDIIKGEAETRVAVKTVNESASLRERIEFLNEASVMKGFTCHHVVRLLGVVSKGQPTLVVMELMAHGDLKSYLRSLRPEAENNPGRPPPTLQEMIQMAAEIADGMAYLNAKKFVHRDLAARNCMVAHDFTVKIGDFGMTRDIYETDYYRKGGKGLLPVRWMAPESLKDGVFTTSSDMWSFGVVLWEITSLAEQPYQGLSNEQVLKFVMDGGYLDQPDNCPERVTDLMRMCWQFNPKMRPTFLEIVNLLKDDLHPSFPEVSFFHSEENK
Sequence of Csk (P41240 whole entry, species assumed): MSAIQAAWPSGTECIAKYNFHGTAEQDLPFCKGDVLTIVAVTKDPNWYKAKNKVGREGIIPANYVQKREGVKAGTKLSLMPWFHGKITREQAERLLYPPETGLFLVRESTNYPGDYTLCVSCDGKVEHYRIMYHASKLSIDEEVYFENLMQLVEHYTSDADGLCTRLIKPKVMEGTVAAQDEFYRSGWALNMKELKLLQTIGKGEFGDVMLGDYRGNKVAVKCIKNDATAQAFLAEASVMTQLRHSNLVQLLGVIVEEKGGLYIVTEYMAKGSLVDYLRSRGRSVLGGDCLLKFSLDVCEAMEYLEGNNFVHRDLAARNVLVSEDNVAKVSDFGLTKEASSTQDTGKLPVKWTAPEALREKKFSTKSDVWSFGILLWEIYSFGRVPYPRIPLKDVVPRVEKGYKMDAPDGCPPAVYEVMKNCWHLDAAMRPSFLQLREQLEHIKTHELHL

`Nc1ncnc2c1ncn2[C@@H]1O[C@H](COP(=O)(O)OP(=O)(O)OP(=O)(O)O)[C@@H](O)[C@H]1O` [ATP, reference compound] gave a Km ([1]; substrates of IRK, read-out: Km app) of 71 µM and a Km (Csk) of 195 µM.

For `CSCC[C@H](NC(=O)[C@H](Cc1ccc(NC(=O)CSP(=O)(O)OP(=O)(O)OP(=O)(O)OC[C@H]2O[C@@H](n3cnc4c(N)ncnc43)[C@H](O)[C@@H]2O)cc1)NC(=O)[C@H](CC(=O)O)NC(=O)CNC(=O)[C@@H](NC(=O)[C@H](C)NC(=O)[C@@H]1CCCN1C(=O)[C@H](CC(C)C)NC(=O)[C@H](CCCCN)NC(=O)[C@H](CCCCN)NC(=O)[C@H](CCCCN)NC(C)=O)[C@@H](C)O)C(=O)N[C@@H](CC(N)=O)C(=O)N[C@@H](CCSC)C(=O)N[C@@H](CO)C(=O)N1CCC[C@H]1C(=O)N[C@H](C(=O)NCC(=O)N[C@@H](CC(=O)O)C(=O)O)C(C)C` [Compound 2] (Ac-KKKLPATGD[Phe(4-NH2)](X1)MNMSPVGD-OH), the “mode of inhibition of IRK” value [1] was “linear competitive inhibitor versus both nucleotide (FIG. 2a) and peptide (FIG. 2b) substrates”, the binding energy [1] was 8.9 kcal/mol and the half-life ([2]; acidic solution (pH 2), read-out: half life of decomposition (converted)) was about 2 h. For the same molecule, the storage stability ([2]; frozen solution at −80° C. for several weeks) was “without detectable decomposition” and the “time stable in aqueous solution” value ([2]; neutral pH, room temperature) was over 12 h.

With `Nc1ncnc2c1ncn2[C@@H]1O[C@H](COP(=O)(O)OP(=O)(O)OP(=O)(O)SCC(=O)Nc2ccccc2)[C@@H](O)[C@H]1O` [Compound 3] the Ki [1] was 114 µM, the “fold tighter binding than ATP-γS alone” value [1] was 2 fold and the “fold weaker as an inhibitor than 2” value [1] was “approximately 300 fold”. For the same molecule, the “mode of inhibition of IRK” value [1] was “linear competitive inhibitor of IRK versus ATP”.

With `CC(=O)N[C@@H](CC(C)C)C(=O)N[C@@H](CCCNC(=N)N)C(=O)N[C@@H](CCCNC(=N)N)C(=O)N[C@@H](C)C(=O)N[C@@H](CNC(=O)CSP(=O)(O)OP(=O)(O)OP(=O)(O)OC[C@H]1O[C@@H](n2cnc3c(N)ncnc32)[C@H](O)[C@@H]1O)C(=O)N[C@@H](CC(C)C)C(=O)NCC(=O)O` [kemptide-ATPγS conjugate] (Ac-LRRA[Dap](X1)LG-OH) the “inhibition of PKA (in words)” value [3] was “inhibitory to PKA” and the Ki ([3]; reversible competitive inhibition model, read-out: calculated Ki versus ATP) was 9.6 µM.

Work on “adenosine 5′-O-3-thiotriphosphate [ATPγS, reference compound]” yielded a binding energy [1] of 5.1 kcal/mol and a Ki ([1]; linear competitive versus ATP, read-out: Ki versus ATP) of 210 µM.
